Experiments:
human IDO1 = target: T1, human IDO1 (Homo sapiens, UniProt P14902); experiment: human IDO1 biochemical assay (NFK GreenScreen)
T1 construct: Full-length recombinant human and mouse IDO1 were expressed in Escherichia coli with a hexahistidine tag at the N-terminus; hexahistidine (N); made in house; host or cells: Escherichia coli

A375 + IFNγ (hIDO1) = target: T2, A375 + IFNγ (hIDO1) (Homo sapiens, UniProt P14902); experiment: cell-based assay, Trp-catabolizing activity in IFNγ-stimulated A375 cells; conditions: IFNγ-stimulated A375 human melanoma cells
T2 construct: host or cells: A375 cells stimulated with IFNγ
T2 sequence (P14902 whole entry): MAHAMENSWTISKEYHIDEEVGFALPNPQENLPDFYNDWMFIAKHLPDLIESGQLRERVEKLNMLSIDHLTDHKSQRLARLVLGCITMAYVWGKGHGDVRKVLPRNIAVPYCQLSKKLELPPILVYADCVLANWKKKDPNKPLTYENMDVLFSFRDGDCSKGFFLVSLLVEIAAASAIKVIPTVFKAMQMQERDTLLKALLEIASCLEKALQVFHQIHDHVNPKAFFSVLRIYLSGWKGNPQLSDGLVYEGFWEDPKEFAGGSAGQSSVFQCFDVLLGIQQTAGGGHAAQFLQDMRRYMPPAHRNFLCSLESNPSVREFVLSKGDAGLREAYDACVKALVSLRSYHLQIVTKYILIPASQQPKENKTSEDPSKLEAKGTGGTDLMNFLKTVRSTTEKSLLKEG

human TDO = target: T3, human TDO (Homo sapiens, UniProt P48775); experiment: human TDO biochemical assay (NFK GreenScreen); conditions: biochemical; highest tested concentration 31.6 µM
T3 construct: hexahistidine (C); made in house; host or cells: Escherichia coli
T3 sequence (P48775 whole entry): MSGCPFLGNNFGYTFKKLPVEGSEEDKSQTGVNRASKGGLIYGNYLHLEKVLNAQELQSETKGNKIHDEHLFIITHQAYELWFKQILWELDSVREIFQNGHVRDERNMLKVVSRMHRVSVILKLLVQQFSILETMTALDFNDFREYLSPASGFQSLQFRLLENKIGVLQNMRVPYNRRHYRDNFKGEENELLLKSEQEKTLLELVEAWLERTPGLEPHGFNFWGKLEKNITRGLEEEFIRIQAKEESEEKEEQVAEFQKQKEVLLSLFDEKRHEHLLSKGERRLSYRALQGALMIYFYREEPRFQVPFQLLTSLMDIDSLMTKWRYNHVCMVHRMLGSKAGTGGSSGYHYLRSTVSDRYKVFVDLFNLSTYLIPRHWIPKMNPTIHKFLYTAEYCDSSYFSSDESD
Protocol: Full-length recombinant human and mouse IDO1 were expressed in Escherichia coli with a hexahistidine tag at the N-terminus, and purified by affinity chromatography to > 95% purity, as described ([8]). Human and mouse TDO containing a C-terminal hexahistidine tag were analogously expressed and purified to > 95% purity ([8]). The inhibitory activity of compounds was determined with the NFK GreenScreen assay technology under the conditions as described ([8]), except for the reaction buffer for IDO1, which was replaced by 50 mM NaH2PO4, pH 7.0, supplemented with 0.01% Tween-20 and 1% glycerol. Inhibition of the CYP3A4 and CYP2D6 enzymes was determined with the P450-Glo™ Screening System with Luciferin-IPA (Promega, #V9920 and V9890). For determination of IC50 values, the effect of inhibitors was determined in 10-point duplicate dose-response curves. Graphs were fitted to a four-parameter logistics equation in XLfit (ID Business Solutions, Ltd., Guildford, UK) from which IC50 values were calculated.

T1 sequence (P14902 whole entry): as the sequence (P14902 whole entry) above

Structure (SMILES)	IC50 (human IDO1; biochemical) [µM]	IC50 (human IDO1; human IDO1 biochemical assay) [µM]	IC50 (A375 + IFNγ (hIDO1)) [µM]	activity on human TDO (in words) (human TDO)
O=C1CN(C(=O)c2ccccc2)C(c2cccc(Br)c2)N1O (stereo not drawn) [Compound 1]	1.2	1.22	4.52	inactive
O=C1CN(C(=O)c2ccccc2)C(c2ccccc2)N1O (stereo not drawn) [Compound 2a]		> 31.6	> 31.6	
O=C1CN(C(=O)c2ccccc2)C(c2cccc(Cl)c2)N1O (stereo not drawn) [Compound 2b]		2.38	5.22	
O=C1CN(C(=O)c2ccccc2)C(c2ccccc2Br)N1O (stereo not drawn) [Compound 2c]		> 31.6	> 31.6	
O=C1CN(C(=O)c2ccccc2)C(c2ccc(Br)cc2)N1O (stereo not drawn) [Compound 2d]		> 31.6	> 31.6	
O=C1CN(C(=O)c2ccccc2)C(C2CCCCC2)N1O (stereo not drawn) [Compound 2e]		> 31.6	> 31.6	
N#Cc1cccc(C2N(O)C(=O)CN2C(=O)c2ccccc2)c1 (stereo not drawn) [Compound 2f]		17.9	> 31.6	
O=C1CN(C(=O)c2ccccc2)C(c2cccc(C(F)(F)F)c2)N1O (stereo not drawn) [Compound 2g]		2.46	5.29	
O=C1CN(C(=O)c2ccc(F)cc2)C(c2cccc(Br)c2)N1O (stereo not drawn) [Compound 3a]		2.17	11	
O=C1CN(C(=O)c2cccc(F)c2)C(c2cccc(Br)c2)N1O (stereo not drawn) [Compound 3b]		0.91	5.24	
O=C1CN(C(=O)c2ccccc2F)C(c2cccc(Br)c2)N1O (stereo not drawn) [Compound 3c]		0.479	1.15	

— publication PMC7876453, “Targeting Indoleamine 2,3-Dioxygenase in Cancer Models Using the Novel Small Molecule Inhibitor NTRC 3883-0” (Frontiers in Immunology, 2021)
